Source: US20170021014A1, “VACCINE ADJUVANTS FOR CYTOMEGALOVIRUS PREVENTION AND TREATMENT” (THE JOHNS HOPKINS UNIVERSITY, priority 2015, published 2017)

Assays:
clinical isolate of HCMV = test: Immunofluorescence staining for HCMV IE1/2; format: cell-based, human cytomegalovirus; details: GIPZ HFFs, MDP pretreatment 72 h, infected 24 h, MOI 1
Experimental: GIPZ control and shIFN-β HFFs were seeded into 96-well plate (1×10^4 cells/well) and pretreated with MDP (10 μg/mL) for 72 h. Cells were then infected with a clinical isolate of HCMV at MOI 1. Twenty-four hours after infection, cells were fixed with methanol/acetone (1:1) at −20° C. for 10 min. Cells were then blocked with 7.5% BSA for 30 min. and incubated for 1 h with anti-human CMV IE1&2 antibody (MAB810) (1:500 in 0.5% BSA). After 3 washes with PBS, cells were incubated with FITC-anti mouse antibody (F8521, Sigma, 1:500, in 0.5% BSA) for 1 h. Then cells were washed 3 times with PBS and counterstained with propidium iodide (Invitrogen) for nuclear staining. Images were taken using Nikon Eclipse TS100 microscope.

[1] = test system: HCMV proteins (IE1/2, pp65); test: Western blot of HCMV proteins in infected HFFs; format: cell-based, human cytomegalovirus
Experimental: (§1) Cell lysates containing equivalent amount of proteins were mixed with an equal volume of sample buffer (125 mM Tris-HCL, pH 6.8, 4% SDS, 20% glycerol and 5% β-mercaptoethanol) and boiled at 100° C. for 10 min. Denatured proteins were resolved in Tris-glycine polyacrylamide gels (10-12%) and transferred to polyvinylidine difluoride (PVDF) membranes (Bio-Rad Laboratories, Hercules, Calif.) by electroblotting. Membranes were incubated in blocking solution [5% w/v non-fat dry milk and 0.1% Tween-20 in PBS (PBST)] for 1 h, washed with PBST, and incubated with antibody at 4° C. overnight. Membranes were washed with PBST and incubated with horseradish peroxidase-conjugated secondary antibodies in PBST for 1 h at room temperature. Following washing with PBST, protein bands were visualized by chemiluminescence using SuperSignal West Dura and Pico reagents (Pierce Chemical, Rockford, Ill.). Antibodies for HCMV proteins were used at 1:2000 and included: mouse monoclonal anti-HCMV IE1 & IE2 (MAB810, Millipore, Billerica, Mass.), mouse monoclonal anti-HCMV UL83 (pp65, Vector Laboratories Inc., Burlingame, Calif.), and mouse monoclonal anti-pp52 (UL44, Santa Cruz Biotechnology, Santa Cruz, Calif.). Rabbit polyclonal anti human-NOD2 antibody (H-300, 1:2000), rabbit polyclonal anti-RIPK2 (1:5000), mouse monoclonal anti-NF-KB (p65, 1:1000), rabbit polyclonal anti-IRF3 (1:1000) and mouse monoclonal anti-IRF7 (1:1000) were from Santa Cruz. Rabbit monoclonal anti-Histone H3 (1:2000), rabbit monoclonal anti-pERK1/2 (1:5000), mouse monoclonal anti-total ERK (1:2000), rabbit monoclonal anti-pIκBα (1:2000), mouse monoclonal anti-IκBα, rabbit monoclonal anti-pTBK1 (Ser172), and rabbit monoclonal anti-TBK1 (1:1000) were from Cell Signaling Technology, Beverly, Mass. Horseradish peroxidase (HRP)-conjugated anti-rabbit IgG was from Cell Signaling. […]
Quantitative analysis of proteins detected by immunoblotting was performed using ImageJ 1.48v software (NIH) by determining relative band intensities of individual bands. […]

HCMV Towne = test: Plaque reduction assay in HFFs, HCMV Towne; format: cell-based, human cytomegalovirus
Experimental: A plaque reduction assay was performed in HFFs to determine the effects of MDP treatment either before or after infection on virus replication. HFFs were seeded into 12-well plates (2×10^5 cells/well) and infected with Towne HCMV at approximately 100 plaques/well. After 90 minutes, media were aspirated, and DMEM containing 0.5% carboxymethyl-cellulose (CMC), 4% fetal bovine serum (FBS), and MDP at final concentration of 10 μg/mL were added into duplicate wells. In pretreatment experiments HFFs were first treated with MDP (10 μg/mL) for 72 h after which infection with the Towne or TB40 strains was carried out at approximately 100 plaques/well. After 90 minute adsorption, media were aspirated, and DMEM containing 0.5% CMC and 4% FBS were added into duplicate wells. After incubation at 37° C. for 8 days (Towne) or 10 days (TB40) the overlay was removed and plaques were counted after crystal violet staining.

IFN-β mRNA = test: qRT-PCR of IFN-β mRNA in HFFs; format: cell-based, Human
Experimental: (§2) Total RNA was isolated from cells using RNAeasy Mini kit (Qiagen, Georgetown, Md.) according to manufacturer's instructions. RevertAid first strand cDNA synthesis kit (Fermentas life sciences, Cromwell Park, Md.) was used to synthesize first strand cDNA from total RNA using oligo-dT primers. Negative reverse-transcriptase (−RT) reactions were included to ensure the specificity of qRT-PCR reactions. Synthesis of first strand cDNA from mRNA template was carried out at 42° C. for 1 h. Quantitative RT-PCR was performed using specific primers and SYBR green (Fermentas life science) with two-step cycling protocol (95° C. for 15 s, 60° C. for 1 min). All reactions were performed in triplicates and GAPDH was used as internal control. The expression level of the tested genes was normalized to the expression of GAPDH.

[2] = test system: TANK-binding kinase (TBK1); test: Western blot of NOD2 downstream signaling proteins; format: cell-based, Human; details: HCMV-infected, MOI 0.1, MDP treatment, 36 hpi
Experimental: as §1, with “Calif.).” for “Calif.). Rabbit polyclonal anti human-NOD2 antibody (H-300, 1:2000), rabbit polyclonal anti-RIPK2 (1:5000), mouse monoclonal anti-NF-KB (p65, 1:1000), rabbit polyclonal anti-IRF3 (1:1000) and mouse monoclonal anti-IRF7 (1:1000) were from Santa Cruz. Rabbit monoclonal anti-Histone H3 (1:2000), rabbit monoclonal anti-pERK1/2 (1:5000), mouse monoclonal anti-total ERK (1:2000), rabbit monoclonal anti-pIκBα (1:2000), mouse monoclonal anti-IκBα, rabbit monoclonal anti-pTBK1 (Ser172), and rabbit monoclonal anti-TBK1 (1:1000) were from Cell Signaling Technology, Beverly, Mass. Horseradish peroxidase (HRP)-conjugated anti-rabbit IgG was from Cell Signaling.”

NOD2 mRNA = test: qRT-PCR of NOD2 mRNA in HFFs; format: cell-based, Human; details: for NOD2 induction by MDP: HCMV-infected, 36 hpi
Experimental: as §2

secreted IFN-β = test: IFN-β specific ELISA of supernatants; format: cell-based, Human; details: MDP pretreatment 18 or 72 h, MOI 1, 24 h
Experimental: The effect of MDP pretreatment on levels of secreted IFN-β in supernatants from non-infected or HCMV-infected HFFs was measured by IFN-β specific ELISA kit (PBL Assay Science, Piscataway, N.J.).

CC(=O)N[C@H]1C(O)O[C@H](CO)[C@@H](O)[C@@H]1O[C@H](C)C(=O)N[C@@H](C)C(=O)N[C@H](CCC(=O)O)C(N)=O (mixture of isomers) [MDP, Muramyl dipeptide]
nuclear IE1/2 expression (clinical isolate of HCMV): reduced IE1/2 expression | decrease in pp65 expression ([1]; MDP treatment after infection, MOI 0.1, 96 hpi): approximately 75% | reduction in pp65 expression ([1]; MDP treatment after infection, higher MOI (MOI 1), 96 hpi): 40% | HCMV replication, dose response ([1]; MOI 0.1, IE1/2 and pp65 expression after 4 days): suppressed HCMV replication (MOI 0.1) in a dose-dependent manner | plaque number (HCMV Towne; MDP 10 μg/mL after infection, 100 PFU/well, counted after 8 days): reduced plaque number | plaque number reduction (HCMV Towne; MDP 10 μg/mL pretreatment 72 h, 100 PFU/well, 8 days): approximately 90% | number of plaques (HCMV Towne; control GIPZ cells, MDP pretreatment 72 h, day 8): significantly decreased | virus replication (plaque number) (HCMV Towne; shIFN-β cells, MDP pretreatment 72 h, day 8): failed to restrict virus replication | increase in IFN-β mRNA (IFN-β mRNA; HCMV-infected, MDP treatment, 4 hpi): 2 fold | induction of IFN-β mRNA (IFN-β mRNA; MDP after infection at MOI 0.1, 36 hpi (infection only 15-fold)): 170 fold | induction of IFN-β mRNA (IFN-β mRNA; MDP after infection at MOI 1, 36 hpi (infection only 300-fold)): 800 fold | IFN-β expression induction (IFN-β mRNA; MDP alone, compared to non-infected cells, 36 h): 4 fold | IFN-β mRNA (IFN-β mRNA; MDP pretreatment 72 h then HCMV MOI 1 for 24 h): significant induction | IFN-β mRNA (IFN-β mRNA; non-infected HFFs, MDP pretreatment 72 h): did not result in IFN-β induction | phosphorylation of TBK1 [2]: increased phosphorylation | NOD2 induction by MDP (NOD2 mRNA; MOI 0.1, MDP after infection): 6.5 fold | NOD2 induction by MDP (NOD2 mRNA; MOI 1, MDP after infection): 2.5 fold | NOD2 mRNA induction (NOD2 mRNA; MDP pretreatment 72 h then HCMV Towne MOI 1 for 24 h (infection only 50-fold)): 265 fold | induction of NOD2 mRNA (NOD2 mRNA; non-infected HFFs, MDP 10 μg/mL, 36 h): 4 fold | induction of NOD2 mRNA (NOD2 mRNA; non-infected cells, 72 h MDP treatment then 24 h medium): 3 fold | secreted IFN-β (secreted IFN-β): increased with the duration of MDP-pretreatment
